From ChEMBL document CHEMBL1250451, “Mechanistic insights into a Ca2+-dependent family of alpha-mannosidases in a human gut symbiont” (Nat Chem Biol, 2010) come the findings set out here.

Common to all, as to format: protein assay
In assay [1] the target is T1, Alpha-1,2-mannosidase (BT_2111) (Bacteroides thetaiotaomicron) (UniProt Q8A5X5).
T1 sequence (whole entry): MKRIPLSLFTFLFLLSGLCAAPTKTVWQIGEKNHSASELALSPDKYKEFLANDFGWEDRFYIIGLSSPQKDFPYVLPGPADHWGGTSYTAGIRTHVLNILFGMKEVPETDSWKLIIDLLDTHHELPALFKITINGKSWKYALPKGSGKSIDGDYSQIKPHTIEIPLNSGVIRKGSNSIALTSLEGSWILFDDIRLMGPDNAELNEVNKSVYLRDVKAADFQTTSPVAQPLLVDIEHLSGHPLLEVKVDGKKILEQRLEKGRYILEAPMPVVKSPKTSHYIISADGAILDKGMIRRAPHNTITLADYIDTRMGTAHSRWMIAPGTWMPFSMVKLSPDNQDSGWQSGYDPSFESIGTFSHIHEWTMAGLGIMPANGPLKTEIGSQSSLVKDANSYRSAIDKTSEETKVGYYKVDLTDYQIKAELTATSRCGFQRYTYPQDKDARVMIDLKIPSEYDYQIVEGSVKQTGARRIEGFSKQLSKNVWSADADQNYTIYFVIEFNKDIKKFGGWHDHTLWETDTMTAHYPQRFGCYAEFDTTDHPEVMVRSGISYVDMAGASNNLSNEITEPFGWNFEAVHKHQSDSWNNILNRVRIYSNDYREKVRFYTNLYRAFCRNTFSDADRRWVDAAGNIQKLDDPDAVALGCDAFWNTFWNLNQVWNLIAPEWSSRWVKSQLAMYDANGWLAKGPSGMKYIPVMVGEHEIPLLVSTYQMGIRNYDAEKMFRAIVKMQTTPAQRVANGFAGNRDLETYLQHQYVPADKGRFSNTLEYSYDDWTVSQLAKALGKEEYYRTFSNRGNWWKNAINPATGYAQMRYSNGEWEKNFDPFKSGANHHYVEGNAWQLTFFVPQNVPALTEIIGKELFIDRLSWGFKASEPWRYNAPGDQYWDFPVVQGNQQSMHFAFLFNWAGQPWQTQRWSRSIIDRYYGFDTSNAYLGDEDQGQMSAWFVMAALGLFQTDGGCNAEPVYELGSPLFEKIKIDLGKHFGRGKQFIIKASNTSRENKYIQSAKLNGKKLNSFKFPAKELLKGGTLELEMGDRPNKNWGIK
In words: Activity of Bacteroides thetaiotaomicron GH92 alpha-mannosidase GH92 alpha-mannosidase 2111 assessed as mannose release at 1 mM after 16 hrs by HPLC relative to untreated control after 16 hrs by HPLC.

For assay [2], the target named is T2, Alpha-1,2-mannosidase (BT_3994) (Bacteroides thetaiotaomicron) (UniProt Q8A0M7).
T2 sequence (whole entry): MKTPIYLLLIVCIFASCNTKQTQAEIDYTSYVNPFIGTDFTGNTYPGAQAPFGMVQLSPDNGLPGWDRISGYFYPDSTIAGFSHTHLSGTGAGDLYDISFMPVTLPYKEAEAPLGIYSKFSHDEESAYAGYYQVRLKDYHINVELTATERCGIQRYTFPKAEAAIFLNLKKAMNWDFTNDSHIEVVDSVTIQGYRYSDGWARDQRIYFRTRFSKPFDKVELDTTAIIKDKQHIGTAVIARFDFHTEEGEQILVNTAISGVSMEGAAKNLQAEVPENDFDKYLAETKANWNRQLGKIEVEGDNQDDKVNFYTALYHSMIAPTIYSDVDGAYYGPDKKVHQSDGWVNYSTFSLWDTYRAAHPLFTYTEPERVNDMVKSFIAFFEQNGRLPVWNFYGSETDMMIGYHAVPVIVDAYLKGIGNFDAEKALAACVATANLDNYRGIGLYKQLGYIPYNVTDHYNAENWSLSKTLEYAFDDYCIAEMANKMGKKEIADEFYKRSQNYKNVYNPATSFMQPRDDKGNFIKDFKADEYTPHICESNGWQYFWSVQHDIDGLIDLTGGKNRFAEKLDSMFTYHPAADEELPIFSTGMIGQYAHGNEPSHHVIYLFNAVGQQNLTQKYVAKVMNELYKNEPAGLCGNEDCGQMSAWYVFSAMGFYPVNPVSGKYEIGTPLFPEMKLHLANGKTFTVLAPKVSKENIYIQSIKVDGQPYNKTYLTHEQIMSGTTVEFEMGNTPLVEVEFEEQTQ
In words: Activity of Bacteroides thetaiotaomicron GH92 alpha-mannosidase GH92 alpha-mannosidase 3994 assessed as mannose release at 1 mM after 16 hrs by HPLC relative to untreated control after 16 hrs by HPLC.

In assay [3] the target is T3, Alpha-1,2-mannosidase (BT_4092) (Bacteroides thetaiotaomicron) (UniProt Q8A0C9).
T3 sequence (whole entry): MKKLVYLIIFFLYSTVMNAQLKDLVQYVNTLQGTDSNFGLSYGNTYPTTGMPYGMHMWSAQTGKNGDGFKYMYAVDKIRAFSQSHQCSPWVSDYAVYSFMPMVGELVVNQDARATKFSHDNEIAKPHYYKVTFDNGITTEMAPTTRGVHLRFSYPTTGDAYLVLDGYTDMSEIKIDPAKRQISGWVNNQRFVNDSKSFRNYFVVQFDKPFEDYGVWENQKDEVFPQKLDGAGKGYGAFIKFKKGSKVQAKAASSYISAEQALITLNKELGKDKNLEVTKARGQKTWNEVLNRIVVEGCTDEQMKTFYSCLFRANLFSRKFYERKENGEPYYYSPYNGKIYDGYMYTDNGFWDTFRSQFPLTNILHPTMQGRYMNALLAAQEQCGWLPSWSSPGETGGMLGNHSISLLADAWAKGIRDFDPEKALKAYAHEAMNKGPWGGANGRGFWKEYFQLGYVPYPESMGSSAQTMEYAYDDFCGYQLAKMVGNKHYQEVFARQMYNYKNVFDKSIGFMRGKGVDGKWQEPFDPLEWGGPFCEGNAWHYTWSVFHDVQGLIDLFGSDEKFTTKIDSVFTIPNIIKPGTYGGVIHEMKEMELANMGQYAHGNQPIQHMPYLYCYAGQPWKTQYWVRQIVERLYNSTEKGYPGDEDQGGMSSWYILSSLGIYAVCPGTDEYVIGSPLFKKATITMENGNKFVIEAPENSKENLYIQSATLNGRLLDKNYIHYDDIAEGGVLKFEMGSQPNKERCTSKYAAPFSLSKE
In words: Activity of Bacteroides thetaiotaomicron GH92 alpha-mannosidase GH92 alpha-mannosidase 4092 assessed as mannose release at 1 mM after 16 hrs by HPLC relative to untreated control after 16 hrs by HPLC.

The structures appear in SMILES notation. The source made the active and inactive calls. The calls are words filed in the database; no cut-off is given here.

For `OC[C@H]1O[C@H](O[C@H]2[C@H](O)[C@H](O)[C@@H](O)O[C@@H]2CO)[C@@H](O)[C@@H](O)[C@@H]1O`, the outcome in assay [1] was inactive. For the same compound, the Activity in assay [2] was determined as 20%; in assay [3], 0.73%.
The corresponding values for `OC[C@H]1O[C@H](O[C@H]2[C@@H](O)[C@H](O)[C@@H](CO)O[C@@H]2O)[C@@H](O)[C@@H](O)[C@@H]1O` are “inactive”, “inactive” and 100%.
The corresponding values for `OC[C@H]1O[C@H](OC[C@H]2O[C@H](O)[C@@H](O)[C@@H](O)[C@@H]2O)[C@@H](O)[C@@H](O)[C@@H]1O` are “inactive”, “inactive” and “inactive”.
As for `OC[C@H]1O[C@H](O[C@@H]2[C@H](O)[C@@H](O)O[C@H](CO)[C@H]2O)[C@@H](O)[C@@H](O)[C@@H]1O`, the outcome in assay [1] was inactive. Also, the Activity in assay [3] is 0.34%.
